Biological target: T1, human PTH1 receptor (Homo sapiens, UniProt Q03431)
T1 sequence (Q03431 27-593): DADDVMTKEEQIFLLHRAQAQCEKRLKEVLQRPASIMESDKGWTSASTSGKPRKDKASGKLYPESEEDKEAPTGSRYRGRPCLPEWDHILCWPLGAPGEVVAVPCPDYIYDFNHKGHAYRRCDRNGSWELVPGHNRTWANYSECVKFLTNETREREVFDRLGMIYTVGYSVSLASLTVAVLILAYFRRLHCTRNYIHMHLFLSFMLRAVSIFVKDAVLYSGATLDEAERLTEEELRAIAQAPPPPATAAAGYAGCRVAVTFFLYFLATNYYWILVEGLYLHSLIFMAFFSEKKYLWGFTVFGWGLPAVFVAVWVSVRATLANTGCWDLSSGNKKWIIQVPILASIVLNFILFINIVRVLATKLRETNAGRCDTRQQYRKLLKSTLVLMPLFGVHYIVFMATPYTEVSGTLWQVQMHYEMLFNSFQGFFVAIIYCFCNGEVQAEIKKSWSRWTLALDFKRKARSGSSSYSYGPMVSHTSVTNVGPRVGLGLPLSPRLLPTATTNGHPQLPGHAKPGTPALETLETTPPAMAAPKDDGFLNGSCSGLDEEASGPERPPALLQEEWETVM
Experiment: In vitro cAMP signal activity in HKRK-B7 cells (LLC-PK1 cells overexpressing the human PTH1 receptor)
Format: cell-based
Conditions: HKRK-B7 cells; compound at 1×10^−3 M; cAMP produced as percentage of that produced by hPTH(1-34) at 100 nM

| SMILES | cAMP production activity (%) |
| --- | --- |
| Cc1cc(C(=O)N(C)C)ccc1CCS(=O)(=O)N1CCC2(CC1)N=C(c1cccc(Cl)c1F)NC2=O [Compound 93, 4-{2-[2-(3-chloro-2-fluoro-phenyl)-4-oxo-1,3,8-triaza-spiro[4.5]dec-1-ene-8-sulfonyl]-ethyl}-3,N,N-trimethyl-benzamide] | 111% |
| Cc1cc(C2=NC3(CCN(S(=O)(=O)CCc4ccc(C(=O)N(C)C)cc4C)CC3)C(=O)N2)ccc1Cl [Compound 95, 4-{2-[2-(4-chloro-3-methyl-phenyl)-4-oxo-1,3,8-triaza-spiro[4.5]dec-1-ene-8-sulfonyl]-ethyl}-3,N,N-trimethyl-benzamide] | 76% |
| Cc1cc(C(=O)N(C)C)ccc1CCS(=O)(=O)N1CCC2(CC1)N=C(c1ccc(C(F)(F)F)c(F)c1)NC2=O [Compound 96, 4-{2-[2-(3-fluoro-4-trifluoromethyl-phenyl)-4-oxo-1,3,8-triaza-spiro[4.5]dec-1-ene-8-sulfonyl]-ethyl}-3,N,N-trimethyl-benzamide] | 70% |
| Cc1cccc(C2=NC3(CCN(S(=O)(=O)CCc4ccc(C(=O)N(C)C)cc4C)CC3)C(=O)N2)n1 [Compound 97, 3,N,N-trimethyl-4-{2-[2-(6-methyl-pyridin-2-yl)-4-oxo-1,3,8-triaza-spiro[4.5]dec-1-ene-8-sulfonyl]-ethyl}-benzamide] | 4.3% |
| Cc1cc(C(=O)N(C)C)ccc1CCS(=O)(=O)N1CCC2(CC1)N=C(c1ccc(Cl)c(Cl)c1)NC2=O [Compound 98, 4-{2-[2-(3,4-dichloro-phenyl)-4-oxo-1,3,8-triaza-spiro[4.5]dec-1-ene-8-sulfonyl]-ethyl}-3,N,N-trimethyl-benzamide] | 75% |
| Cc1cc(C(=O)N(C)C)ccc1CCS(=O)(=O)N1CCC2(CC1)N=C(c1ccc(C(F)(F)F)cc1C(F)(F)F)NC2=O [Compound 100, 4-{2-[2-(2,4-bis-trifluoromethyl-phenyl)-4-oxo-1,3,8-triaza-spiro[4.5]dec-1-ene-8-sulfonyl]-ethyl}-3,N,N-trimethyl-benzamide] | 61% |
| Cc1cc(C(=O)N(C)C)ccc1CCS(=O)(=O)N1CCC2(CC1)N=C(CC1CCCCC1)NC2=O [Compound 103, 4-[2-(2-cyclohexylmethyl-4-oxo-1,3,8-triaza-spiro[4.5]dec-1-ene-8-sulfonyl)-ethyl]-3,N,N-trimethyl-benzamide] | 80% |
| Cc1cc(C(=O)N(C)C)ccc1CCS(=O)(=O)N1CCC2(CC1)N=C(C1CCC(C(F)(F)F)CC1)NC2=O (stereo not drawn) [Compound 104, 3,N,N-trimethyl-4-{2-[4-oxo-2-(4-trifluoromethyl-cyclohexyl)-1,3,8-triaza-spiro[4.5]dec-1-ene-8-sulfonyl]-ethyl}-benzamide] | 79% |
| Cc1cc(C(=O)N(C)C)ccc1CCS(=O)(=O)N1CCC2(CC1)N=C(c1ccc(OC(F)(F)F)cc1)NC2=O [Compound 106, 3,N,N-trimethyl-4-{2-[4-oxo-2-(4-trifluoromethoxy-phenyl)-1,3,8-triaza-spiro[4.5]dec-1-ene-8-sulfonyl]-ethyl}-benzamide] | 94% |
| Cc1cc(C(=O)N(C)C)ccc1CCS(=O)(=O)N1CCC2(CC1)N=C(c1ccc(F)c(C(F)(F)F)c1)NC2=O [Compound 107, 4-{2-[2-(4-fluoro-3-trifluoromethyl-phenyl)-4-oxo-1,3,8-triaza-spiro[4.5]dec-1-ene-8-sulfonyl]-ethyl}-3,N,N-trimethyl-benzamide] | 110% |
| Cc1cc(C(=O)N(C)C)ccc1CCS(=O)(=O)N1CCC2(CC1)N=C(c1cccc(F)c1)NC2=O [Compound 109, 4-{2-[2-(3-fluoro-phenyl)-4-oxo-1,3,8-triaza-spiro[4.5]dec-1-ene-8-sulfonyl]-ethyl}-3,N,N-trimethyl-benzamide] | 62% |

Continued, values first:

| cAMP production activity (%) | SMILES |
| --- | --- |
| 96% | Cc1cc(C(=O)N(C)C)ccc1CCS(=O)(=O)N1CCC2(CC1)N=C(c1ccc(F)c(Cl)c1)NC2=O [Compound 89, 4-{2-[2-(3-chloro-4-fluoro-phenyl)-4-oxo-1,3,8-triaza-spiro[4.5]dec-1-ene-8-sulfonyl]-ethyl}-3,N,N-trimethyl-benzamide] |
| 88% | Cc1cc(C(=O)N(C)C)ccc1CCS(=O)(=O)N1CCC2(CC1)N=C(c1ccc(F)cc1Cl)NC2=O [Compound 90, 4-{2-[2-(2-chloro-4-fluoro-phenyl)-4-oxo-1,3,8-triaza-spiro[4.5]dec-1-ene-8-sulfonyl]-ethyl}-3,N,N-trimethyl-benzamide] |
| 73% | Cc1cc(C(=O)N(C)C)ccc1CCS(=O)(=O)N1CCC2(CC1)N=C(c1cccc(Br)c1)NC2=O [Compound 91, 4-{2-[2-(3-bromo-phenyl)-4-oxo-1,3,8-triaza-spiro[4.5]dec-1-ene-8-sulfonyl]-ethyl}-3,N,N-trimethyl-benzamide] |
| 97% | Cc1cc(C(=O)N(C)C)ccc1CCS(=O)(=O)N1CCC2(CC1)N=C(c1cccc3c1OC(F)(F)O3)NC2=O [Compound 92, 4-{2-[2-(2,2-difluoro-benzo[1,3]dioxol-4-yl)-4-oxo-1,3,8-triaza-spiro[4.5]dec-1-ene-8-sulfonyl]-ethyl}-3,N,N-trimethyl-benzamide] |
| 62% | Cc1cc(C(=O)N(C)C)ccc1CCS(=O)(=O)N1CCC2(CC1)N=C(c1ccc(OC(F)(F)C(F)F)cc1)NC2=O [Compound 94, 3,N,N-trimethyl-4-(2-{4-oxo-2-[4-(1,1,2,2-tetrafluoro-ethoxy)-phenyl]-1,3,8-triaza-spiro[4.5]dec-1-ene-8-sulfonyl}-ethyl)-benzamide] |
| 80% | Cc1cc(C(=O)N(C)C)ccc1CCS(=O)(=O)N1CCC2(CC1)N=C(c1cccc(OC(F)(F)F)c1)NC2=O [Compound 99, 3,N,N-trimethyl-4-{2-[4-oxo-2-(3-trifluoromethoxy-phenyl)-1,3,8-triaza-spiro[4.5]dec-1-ene-8-sulfonyl]-ethyl}-benzamide] |
| 49% | Cc1cc(C(=O)N(C)C)ccc1CCS(=O)(=O)N1CCC2(CC1)N=C(CCc1ccccc1)NC2=O [Compound 101, 3,N,N-trimethyl-4-[2-(4-oxo-2-phenethyl-1,3,8-triaza-spiro[4.5]dec-1-ene-8-sulfonyl)-ethyl]-benzamide] |
| 23% | Cc1nc(C)c(C2=NC3(CCN(S(=O)(=O)CCc4ccc(C(=O)N(C)C)cc4C)CC3)C(=O)N2)s1 [Compound 102, 4-{2-[2-(2,4-dimethyl-thiazol-5-yl)-4-oxo-1,3,8-triaza-spiro[4.5]dec-1-ene-8-sulfonyl]-ethyl}-3,N,N-trimethyl-benzamide] |
| 78% | Cc1cc(C(=O)N(C)C)ccc1CCS(=O)(=O)N1CCC2(CC1)N=C(c1ccccc1OC(F)(F)F)NC2=O [Compound 105, 3,N,N-trimethyl-4-{2-[4-oxo-2-(2-trifluoromethoxy-phenyl)-1,3,8-triaza-spiro[4.5]dec-1-ene-8-sulfonyl]-ethyl}-benzamide] |
| 62% | Cc1cc(C(=O)N(C)C)ccc1CCS(=O)(=O)N1CCC2(CC1)N=C(CCC1CCCCC1)NC2=O [Compound 108, 4-{2-[2-(2-cyclohexyl-ethyl)-4-oxo-1,3,8-triaza-spiro[4.5]dec-1-ene-8-sulfonyl]-ethyl}-3,N,N-trimethyl-benzamide] |
